The record followed here is patent publication US8017828B2, “Utilization of rare sugars in plant or microorganism” (Shikoku Research Institute Incorporated, priority 2004, dated 2011).

For assay [1], the system named is strawberry plant (variety: “smile ruby”). The assay is described as follows: Growth of strawberry seedlings in tissue culture medium with sugar. The format is in vivo. Conditions: increased (high) concentration in medium.
Assay [2] has as its system Aspergillus niger, Cladosporium cladosporioides and Penicillium chrysogenum. The assay is described as follows: Mycelial elongation of filamentous fungi on agar with rare sugar. It is filed as cell-based. Conditions: 0.05% (w/v) in agar medium, 25° C., 4 days. The protocol:
By using as targets, Aspergillus niger, Cladosporium cladosporioides and Penicillium chrysogenum, which are typical filamentous fungi and generally seen in a living environment, an effect of a rare sugar on mycelial elongation was examined.
As the test fungal strains, NBRC 4066 strain, NBRC 4459 strain and NBRC 4626 strain were used.
Each test fungal strain was cultured on a potato dextrose agar medium at 25° C. for 7 days, and one in which the mycelium extended over the surface of the dish was pushed out along with the agar medium in such a manner that the agar medium was in a disc form with a diameter of 1.1 cm, which was placed at the center of a dish filled with an agar medium (1% Bacto agar) supplemented with any of a variety of rare sugars (allitol, D-altrose, L-mannose, L-galactose, D-tagatose, D-sorbose, D-psicose, D-allose, D-glucose and D-fructose) at 0.05% (w/v) and cultured at 25° C. for 4 days. After the cultivation, the length of the mycelium extending on the surface of the culture medium was measured. Two culture media were prepared for each test plot, and the mycelial length represents the average thereof.

Assay [3] relates to stress/hormone response genes. The format is in vivo, Lotus japonicus. Conditions: for activation of gene group that responds to pathogenic bacteria and environmental stresses: 5 mM in medium, first one week. The method, then:
A pattern of induction of a gene in the case where D-psicose was added to a medium for Lotus japonicus was examined by an experiment using a cDNA array.
Lotus japonicus was germinated from a seed and cultivated in an L&B medium (hydroponic culture medium). When the seed was germinated, Mesorhizobium loti was also inoculated. This condition was applied to both a control plot and a plot of D-psicose addition. With regard to the array, a microarray on which 14,000 clones were immobilized by using a Lotus japonicus cDNA array was used. After test plants were germinated, they were cultivated with an L&B medium supplemented with D-psicose or without addition for 1 week in a growth cabinet (22° C., 30,000 Lux). After total RNA was extracted from the plant body, it was labeled with ^33P in the process where it was converted to cDNA, and then hybridization was carried out. Reading was carried out using STORM 850 and analysis was carried out with Array Vision.

Assay [4] concerns rice plant (variety: “Hinohikari”). As to the kind of experiment: Foliar spraying of sugar on pot-grown rice. The format is in vivo. The method, then:
After seeds of a rice plant (variety: “Hinohikari”) were put in a nylon net and subjected to sterilization and a germination induction treatment in a growth chamber at 30° C. for 2 days while they were soaked in 0.1% (w/v) Benlate (Hokko Chemical Industry Co., Ltd.) in accordance with a common method, they were sown in a nursery tray filled with “Kumiai Ryujou Baido SD” (Kureha Chemical Industry Co., Ltd.) and raised in a phytotron (day temperature: 25° C. and night temperature: 18° C.) for about 2 weeks. Then, Wagner pots with a size of 1/5,000a were filled with “Kumiai Ryujou Baido SD” (Kureha Chemical Industry Co., Ltd.) and the raised rice seedlings were transplanted for permanent planting to the pots and the cultivation was started on Jul. 2, 2003 in the open air under the condition that the soil was covered with water in the pots. From Jul. 16, 2003, when the seedlings were confirmed to take root, water, a 0.02% (w/v) sugar solution, a 0.1% (w/v) sugar solution or a 0.5% (w/v) sugar solution was sprayed onto the whole plant on a three times weekly basis. As for the types of sugars, D-glucose, D-fructose and D-psicose were used and three pots were cultivated for each test plot. The cultivation was continued in such a manner that the water in pots was not dried up and after 5 g of Magamp K medium (HYPONeX JAPAN CORP., Ltd.) per pot was added as additional fertilization on Aug. 29, 2003, and the harvest and survey were carried out on Sep. 22, 2003. The survey items were plant length, number of tillers, leaf weight, husk weight, underground part weight and the like.

For assay [5], the system named is seeds of vegetables, ornamental plants, herbs, fruit trees, grains and feed crops. The assay is described as follows: Seed germination, continuous treatment (Experiment 1). The format is in vivo. An excerpt:
Seeds of vegetables (11 families and 51 species or varieties); ornamental plants (19 families and 47 species or varieties); […] (4 families and 14 species or varieties); fruit trees (3 families and 3 species or varieties); grains (1 family and 3 species or varieties); and feed crops (1 family and 3 species or varieties) were continuously treated with any of 4 types of solutions of deionized water (control), 1% D-fructose, 1% D-psicose and 0.5% D-fructose+0.5% D-psicose and germinated under the condition of 25° C., 35 μmol·m^−2·s^−1, and 16-hour lighting or 16-hour dark. As for the number of seeds, 50 seeds were used for each solution basically, and when the number of seeds was small, the seeds were distributed in such a manner that the number of seeds for each solution became equal. The seeds were sown in a dish with a diameter of 9 cm having a filter paper placed therein or when the seeds were large, they were sown in a styrol container with a diameter of 10 cm and a height of 45 mm. Then, 10 ml or 50 ml of any of the solutions was poured therein, and deionized water was suitably added depending on the transpiration.

The subject of assay [6] is cherry tomato plant “petite”. The assay is described as follows: Hydroponic growth of cherry tomato with 0.05 or 0.5 mM sugar, 40 days. It is filed as in vivo. Conditions: until 40 days; for stem length, rank among 7 treated plots: 0.05 mM. The protocol: Further, on Dec. 18, 2003, a cherry tomato plant “petite” was transplanted for permanent planting to a hydroponic apparatus, and a total of 7 treated plots in which a plot without addition was added to 6 treated plots with the use of a nutrient solution supplemented with 0.05 mM or 0.5 mM D-psicose, D-fructose or mannitol were prepared. A survey was carried out with regard to the growth until 40 days after the permanent planting. As a result, the stem length was the shortest in the cases of 0.05 mM D-psicose and 0.05 mM D-fructose. Although a significant difference in the stem diameter was not observed among treated plots, however, a tendency was observed that the stem was slightly thinner in the treated plot of any of the sugars at a high concentration. A significant difference in the number of leaves was not observed among treated plots.

[7] abbreviates: 1% continuous, 41 species listed.

For the molecule `O=C[C@H](O)[C@H](O)[C@H](O)[C@H](O)CO` [D-allose], in assay [1], the “growth when the concentration added to the medium was increased” value is “the growth thereof was delayed”. For the same molecule, in assay [2], the “effect on mycelial elongation” value is on record as “have an effect of inhibiting mycelial elongation”.

With `O=C(CO)[C@@H](O)[C@H](O)[C@H](O)CO` [D-fructose, reference compound], in assay [3], the “activation of gene group that responds to pathogenic bacteria and environmental stresses” value is listed as “not observed”. In assay [4] (0.02% sugar solution sprayed), the Dry husk weight is reported as 16.8 g, the Dry leaf weight is 43.3 g, the Number of tillers is on record as 29.3 and the Plant length was 85.7 cm. In assay [4] (0.10% sugar solution sprayed), this molecule gave a Dry husk weight of 16.1 g, a Dry leaf weight of 41.0 g, a Number of tillers of 29.3 and a Plant length of 84.3 cm. In addition, in assay [4] (0.50% sugar solution sprayed), the Dry husk weight was 17.2 g, the Dry leaf weight worked out at 36.4 g, the Number of tillers came out at 27.0 and the Plant length was determined as 85.7 cm. Further, the “effect on inhibition of germination by D-psicose” value in assay [5] (0.5% D-fructose+0.5% D-psicose, 32 species listed) is “Mitigated”. Also, the germination entry in assay [5] (setting [7]) is “Inhibited”. The germination result in assay [5] (1% continuous, Lemon Balm and Green Pea (2 species)) is “Promoted”. Besides, the “stem length, rank among 7 treated plots” value in assay [6] is given as “the shortest”.

For `O=C[C@H](O)[C@@H](O)[C@H](O)[C@H](O)CO` [D-glucose, reference compound], in assay [4] (0.02% sugar solution sprayed), the Dry husk weight turned out to be 17.2 g, the Dry leaf weight is reported as 34.0 g, the Number of tillers is 29.3 and the Plant length is recorded as 74.0 cm. Also, in assay [4] (0.10% sugar solution sprayed), the Dry husk weight was found to be 17.6 g, the Dry leaf weight stood at 35.5 g, the Number of tillers is given as 30.0 and the Plant length was 75.5 cm. For the same molecule, in assay [4] (0.50% sugar solution sprayed), the Dry husk weight stood at 17.9 g, the Dry leaf weight was determined as 37.3 g, the Number of tillers is reported as 31.3 and the Plant length is 74.8 cm.

As for `O=C(CO)[C@H](O)[C@H](O)[C@H](O)CO` [D-psicose], in assay [3], the “activation of gene group that responds to pathogenic bacteria and environmental stresses” value is recorded as “activated”. In addition, the “expression of a gene group regulated by plant hormones such as auxin” value in assay [3] (about 0.1 mM in medium) is “an increase or a decrease in the expression”. For the same molecule, in assay [3] (psicose: 0.1 mM, 1 week), the “Expression ratio (D-psicose/water): auxin response factor 6 (ARF6)” value came to 2.5, the “Expression ratio (D-psicose/water): auxin-binding protein T85 precursor (ABP)” value was determined as 2.4, the “Expression ratio (D-psicose/water): chitinase” value is reported as 2.2 and the “Expression ratio (D-psicose/water): chitinase (EC 3.2.1.14) class II” value came out at 2.2. Moreover, in assay [3] (psicose: 0.1 mM, 1 week), the “Expression ratio (D-psicose/water): glycine-rich RNA-binding, abscisic acid-inducible protein” value worked out at 2.5; the “Expression ratio (D-psicose/water): metal stress-regulated protein SR7” value is listed as 2.4; the “Expression ratio (D-psicose/water): pathogen-inducible alpha-dioxygenase” value amounted to 2.4; the “Expression ratio (D-psicose/water): putative WD-40 repeat protein” value is recorded as 2.2. In addition, in assay [3] (psicose: 0.1 mM, 1 week), the “Expression ratio (D-psicose/water): turgor-responsive protein 26G” value was 2.3. In assay [3] (psicose: 5 mM, 1 week), the “Expression ratio (D-psicose/water): ACC oxidase” value was determined as 5.1, the “Expression ratio (D-psicose/water): PDR5-like ABC transporter” value is listed as 10.8, the “Expression ratio (D-psicose/water): PR-10-1 protein” value turned out to be 5.5 and the “Expression ratio (D-psicose/water): auxin response factor like protein” value was 5.6. In assay [3] (psicose: 5 mM, 1 week), the “Expression ratio (D-psicose/water): chalcone synthase” value worked out at 5.4 and the “Expression ratio (D-psicose/water): class I chitinase” value was found to be 13.2. In addition, in assay [4] (0.02% sugar solution sprayed), the Dry husk weight is recorded as 16.8 g, the Dry leaf weight is given as 36.3 g, the Number of tillers is reported as 33.7 and the Plant length was 73.2 cm. In assay [4] (0.10% sugar solution sprayed), this molecule registered a Dry husk weight of 14.7 g, a Dry leaf weight of 31.8 g, a Number of tillers of 33.5 and a Plant length of 76.3 cm. For the same molecule, in assay [4] (0.50% sugar solution sprayed), the Dry husk weight is recorded as 10.2 g, the Dry leaf weight is 27.9 g, the Number of tillers amounted to 50.0 and the Plant length is 71.3 cm. Besides, in assay [1], the “growth when the concentration added to the medium was increased” value is given as “the growth thereof was delayed”. In addition, the germination result in assay [5] (1% continuous, 32 species listed) was “Inhibition of Germination”. In addition, the germination entry in assay [5] (setting [7]) is “Inhibited”. In assay [5] (1% continuous, Diospyros kaki), the elongation of roots result is given as “inhibited”. The germination entry in assay [5] (1% continuous, Myosotis scorpioides and Chinese lantern plant (2 species)) was “Significantly Inhibited”. Moreover, the germination result in assay [5] (1% continuous, Salsola komarovii, Diospyros kaki, Clarkia amoena (3 species)) is on record as “Not Affected or was Promoted Slightly”. In assay [5] (many plants in the Brassica family), the germination entry is recorded as “inhibited”. In addition, in assay [2], the “effect on mycelial elongation” value is reported as “have an effect of inhibiting mycelial elongation”. The “stem length, rank among 7 treated plots” value in assay [6] is reported as “the shortest”. In addition, the “underground part weight, rank among 7 treated plots” value in assay [6] (0.5 mM) is reported as “the smallest”.
